Target: T1, RORc ligand binding domain (Homo sapiens, UniProt P51449)
T1 sequence (P51449 269-508 limits assumed): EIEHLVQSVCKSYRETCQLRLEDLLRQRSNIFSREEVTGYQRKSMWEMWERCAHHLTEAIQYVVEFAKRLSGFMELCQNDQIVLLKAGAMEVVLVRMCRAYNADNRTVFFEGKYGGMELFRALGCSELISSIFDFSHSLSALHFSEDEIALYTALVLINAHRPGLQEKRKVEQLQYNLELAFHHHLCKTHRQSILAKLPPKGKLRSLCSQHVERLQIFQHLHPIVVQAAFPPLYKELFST
Test: In Vitro RORc Ligand Binding Assay
Conditions: RORc IC50, radioligand 25-[3H]hydroxycholesterol 6 nM; 0.6 ug/mL RORc receptor; 3 h at 25° C.

| IC50 [nM] | SMILES |
| --- | --- |
| 31.4 | CC1(C)[C@@H]2CC[C@@]1(c1cncc(C(N)=O)n1)c1nnc(-c3c(F)cccc3F)cc12 [Example 58, 6-((5S,8R)-3-(2,6-difluorophenyl)-9,9-dimethyl-5,6,7,8-tetrahydro-5,8-methanocinnolin-8-yl)pyrazine-2-carboxamide] |
| 15.9 | CC1(C)[C@@H]2CC[C@@]1(c1cccc(C#N)n1)c1nnc(-c3c(F)cccc3F)cc12 [Example 59, 6-((5S,8R)-3-(2,6-difluorophenyl)-9,9-dimethyl-5,6,7,8-tetrahydro-5,8-methanocinnolin-8-yl)picolinonitrile] |
| 13.6 | CC1(C)[C@H]2CC[C@]1(c1cccc(C(=O)NC3COC3)n1)c1nnc(-c3c(F)cccc3F)cc12 [Example 60, 6-((5R,8S)-3-(2,6-difluorophenyl)-9,9-dimethyl-5,6,7,8-tetrahydro-5,8-methanocinnolin-8-yl)-N-(oxetan-3-yl)picolinamide] |
| 34.8 | C[C@H](O)CNC(=O)c1cccc([C@@]23CC[C@@H](c4cc(-c5c(F)cccc5F)nnc42)C3(C)C)n1 [Example 61, 6-((5R,8S)-3-(2,6-difluorophenyl)-9,9-dimethyl-5,6,7,8-tetrahydro-5,8-methanocinnolin-8-yl)-N-((S)-2-hydroxypropyl)picolinamide] |
| 28.8 | C[C@@H](O)CNC(=O)c1cccc([C@@]23CC[C@@H](c4cc(-c5c(F)cccc5F)nnc42)C3(C)C)n1 [Example 62, 6-((5R,8S)-3-(2,6-difluorophenyl)-9,9-dimethyl-5,6,7,8-tetrahydro-5,8-methanocinnolin-8-yl)-N-((R)-2-hydroxypropyl)picolinamide] |
| 53.1 | CC(C)(O)CNC(=O)c1cccc([C@@]23CC[C@@H](c4cc(-c5c(F)cccc5F)nnc42)C3(C)C)n1 [Example 63, 6-((5R,8S)-3-(2,6-difluorophenyl)-9,9-dimethyl-5,6,7,8-tetrahydro-5,8-methanocinnolin-8-yl)-N-(2-hydroxy-2-methylpropyl)picolinamide] |
| 95.4 | CC1(C)[C@H]2CC[C@]1(c1cc(C(=O)NCCO)ccn1)c1nnc(-c3c(F)cccc3F)cc12 [Example 64] |
| 104 | CC1(C)[C@H]2CC[C@]1(c1cc(C(=O)NC3COC3)ccn1)c1nnc(-c3c(F)cccc3F)cc12 [Example 65] |
| 161 | Cc1nnc(-c2ccnc([C@@]34CC[C@@H](c5cc(-c6c(F)cccc6F)nnc53)C4(C)C)c2)o1 [Example 66] |
| 276 | C[C@H](CO)NC(=O)c1ccnc([C@@]23CC[C@@H](c4cc(-c5c(F)cccc5F)nnc42)C3(C)C)c1 [Example 67] |
| 553 | C[C@@H](CO)NC(=O)c1ccnc([C@@]23CC[C@@H](c4cc(-c5c(F)cccc5F)nnc42)C3(C)C)c1 [Example 68] |
| 26.4 | CC1(C)[C@H]2CC[C@]1(c1cc(C(N)=O)ccn1)c1nnc(-c3c(F)cccc3F)cc12 [Example 69] |
| 50 | CNC(=O)c1ccnc([C@@]23CC[C@@H](c4cc(-c5c(F)cccc5F)nnc42)C3(C)C)c1 [Example 70] |
| 1510 | CC1(C)[C@H]2CC[C@]1(c1cc(N)ccn1)c1nnc(-c3c(F)cccc3F)cc12 [Example 71] |
| 2.6 | CC1(C)[C@H]2CC[C@]1(c1cccc(N)n1)c1nnc(-c3c(F)cccc3F)cc12 [Example 72, 6-((5R,8S)-3-(2,6-difluorophenyl)-9,9-dimethyl-5,6,7,8-tetrahydro-5,8-methanocinnolin-8-yl)pyridin-2-amine] |
| 32.4 | CC1(C)[C@@H]2CC[C@@]1(c1cncc(C(=O)NCCO)n1)c1nnc(-c3c(F)cccc3F)cc12 [Example 73, 6-((5S,8R)-3-(2,6-difluorophenyl)-9,9-dimethyl-5,6,7,8-tetrahydro-5,8-methanocinnolin-8-yl)-N-(2-hydroxyethyl)pyrazine-2-carboxamide] |
| 118 | CC(=O)Nc1ccnc([C@@]23CC[C@@H](c4cc(-c5c(F)cccc5F)nnc42)C3(C)C)c1 [Example 74] |
| 167 | CC1(C)[C@H]2CC[C@]1(c1cc(-c3nnc(CO)o3)ccn1)c1nnc(-c3c(F)cccc3F)cc12 [Example 75] |
| 1470 | CN(C)C(=O)c1ccnc([C@@]23CC[C@@H](c4cc(-c5c(F)cccc5F)nnc42)C3(C)C)c1 [Example 76] |

| IC50 [nM] | SMILES |
| --- | --- |
| 139 | CC(C)(O)CNC(=O)c1ccnc([C@@]23CC[C@@H](c4cc(-c5c(F)cccc5F)nnc42)C3(C)C)c1 [Example 77] |
| 1190 | CC1(C)[C@H]2CC[C@]1(c1cc(NS(C)(=O)=O)ccn1)c1nnc(-c3c(F)cccc3F)cc12 [Example 78] |
| 47.3 | CC1(C)[C@H]2CC[C@]1(c1cc(CO)ccn1)c1nnc(-c3c(F)cccc3F)cc12 [Example 79] |
| 11.2 | CC1(C)[C@H]2CC[C@]1(c1cccc(NS(C)(=O)=O)n1)c1nnc(-c3c(F)cccc3F)cc12 [Example 80, N-(6-((5R,8S)-3-(2,6-difluorophenyl)-9,9-dimethyl-5,6,7,8-tetrahydro-5,8-methanocinnolin-8-yl)pyridin-2-yl)methanesulfonamide] |
| 52.8 | CC1(C)[C@H]2CC[C@]1(c1ccnc(C(=O)NCCO)n1)c1nnc(-c3c(F)cccc3F)cc12 [Example 81] |
| 129 | CC1(C)[C@@H]2CC[C@@]1(c1cncc(C(=O)NC3COC3)n1)c1nnc(-c3c(F)cccc3F)cc12 [Example 82, 6-((5S,8R)-3-(2,6-difluorophenyl)-9,9-dimethyl-5,6,7,8-tetrahydro-5,8-methanocinnolin-8-yl)-N-(oxetan-3-yl)pyrazine-2-carboxamide] |
| 13.3 | CC1(C)[C@H]2CC[C@]1(c1cccc(C(=O)NCCS(C)(=O)=O)n1)c1nnc(-c3c(F)cccc3F)cc12 [Example 83, 6-((5R,8S)-3-(2,6-difluorophenyl)-9,9-dimethyl-5,6,7,8-tetrahydro-5,8-methanocinnolin-8-yl)-N-(2-(methylsulfonyl)ethyl)picolinamide] |
| 26.3 | CC1(C)[C@H]2CC[C@]1(c1cncc(-c3nnc(CO)o3)n1)c1nnc(-c3c(F)cccc3F)cc12 [Example 84, (5-(6-((5R,8S)-3-(2,6-difluorophenyl)-9,9-dimethyl-5,6,7,8-tetrahydro-5,8-methanocinnolin-8-yl)pyrazin-2-yl)-1,3,4-oxadiazol-2-yl)methanol] |
| 30.6 | CC1(C)[C@H]2CC[C@]1(c1cncc(C(=O)NCCCO)n1)c1nnc(-c3c(F)cccc3F)cc12 [Example 85, 6-((5R,8S)-3-(2,6-difluorophenyl)-9,9-dimethyl-5,6,7,8-tetrahydro-5,8-methanocinnolin-8-yl)-N-(3-hydroxypropyl)pyrazine-2-carboxamide] |
| 45 | CC(C)(O)CNC(=O)c1cncc([C@@]23CC[C@@H](c4cc(-c5c(F)cccc5F)nnc42)C3(C)C)n1 [Example 86, 6-((5R,8S)-3-(2,6-difluorophenyl)-9,9-dimethyl-5,6,7,8-tetrahydro-5,8-methanocinnolin-8-yl)-N-(2-hydroxy-2-methylpropyl)pyrazine-2-carboxamide] |
| 15.8 | CC1(C)[C@H]2CC[C@]1(c1cncc(CO)n1)c1nnc(-c3c(F)cccc3F)cc12 [Example 87, (6-((5R,8S)-3-(2,6-difluorophenyl)-9,9-dimethyl-5,6,7,8-tetrahydro-5,8-methanocinnolin-8-yl)pyrazin-2-yl)methanol] |
| 5.4 | Cc1cnc(-c2cncc([C@@]34CC[C@@H](c5cc(-c6c(F)cccc6F)nnc53)C4(C)C)n2)o1 [Example 88, 2-(6-((5R,8S)-3-(2,6-difluorophenyl)-9,9-dimethyl-5,6,7,8-tetrahydro-5,8-methanocinnolin-8-yl)pyrazin-2-yl)-5-methyloxazole] |
| 12.8 | C[C@H](O)CNC(=O)c1cncc([C@]23CC[C@H](c4cc(-c5c(F)cccc5F)nnc42)C3(C)C)n1 [Example 89, 6-((5S,8R)-3-(2,6-difluorophenyl)-9,9-dimethyl-5,6,7,8-tetrahydro-5,8-methanocinnolin-8-yl)-N-((S)-2-hydroxypropyl)pyrazine-2-carboxamide] |
| 23 | CC1(C)[C@H]2CC[C@]1(c1cncc(C(=O)NCCC#N)n1)c1nnc(-c3c(F)cccc3F)cc12 [Example 90, N-(2-cyanoethyl)-6-((5R,8S)-3-(2,6-difluorophenyl)-9,9-dimethyl-5,6,7,8-tetrahydro-5,8-methanocinnolin-8-yl)pyrazine-2-carboxamide] |
| 40.8 | CN(CCO)C(=O)c1cncc([C@@]23CC[C@@H](c4cc(-c5c(F)cccc5F)nnc42)C3(C)C)n1 [Example 91, 6-((5R,8S)-3-(2,6-difluorophenyl)-9,9-dimethyl-5,6,7,8-tetrahydro-5,8-methanocinnolin-8-yl)-N-(2-hydroxyethyl)-N-methylpyrazine-2-carboxamide] |
| 20.6 | CC1(C)[C@H]2CC[C@]1(c1cncc(C(=O)NCC#N)n1)c1nnc(-c3c(F)cccc3F)cc12 [Example 92, N-(cyanomethyl)-6-((5R,8S)-3-(2,6-difluorophenyl)-9,9-dimethyl-5,6,7,8-tetrahydro-5,8-methanocinnolin-8-yl)pyrazine-2-carboxamide] |
| 31.8 | CC1(C)[C@H]2CC[C@]1(c1cncc(C(=O)N[C@H]3C[C@@H](O)C3)n1)c1nnc(-c3c(F)cccc3F)cc12 [Example 93, 6-((5R,8S)-3-(2,6-difluorophenyl)-9,9-dimethyl-5,6,7,8-tetrahydro-5,8-methanocinnolin-8-yl)-N-((1s,3R)-3-hydroxycyclobutyl)pyrazine-2-carboxamide] |
| 21.5 | CC1(C)[C@H]2CC[C@]1(c1cncc(C(=O)N[C@H]3C[C@H](O)C3)n1)c1nnc(-c3c(F)cccc3F)cc12 [Example 94, 6-((5R,8S)-3-(2,6-difluorophenyl)-9,9-dimethyl-5,6,7,8-tetrahydro-5,8-methanocinnolin-8-yl)-N-((1r,3S)-3-hydroxycyclobutyl)pyrazine-2-carboxamide] |

Source: US10487068B2, “Pyridazine derivatives as RORc modulators” (Genentech, Inc., priority 2015, dated 2019)
